Measurements from patent publication US8410288B2, “Polymorphs of Saxagliptin hydrochloride and processes for preparing them” (Teva Pharmaceutical Industries Ltd., priority 2010, dated 2013).
Where a name gives a salt, the structure may show the parent alone.

Columns and labels:
Assay type in all cases: physicochemical
[1] = Particle morphology (SEM), filterability and powder flowability; settings: small plate to rod-shaped particles
Source text: Equipment: Jeol JSM-5800 scanning microscope, Sputtered with gold by Edwards S150 sputter coater

[2] = Tapped density measurement; settings: 450 mg sample; for tapped density: 10 ml graduated cylinder, tapped 200 times; for volume of sample after tapping: 10 ml measuring flask, tapped 200 times with equal force
Method: Samples were tapped the same number of times (200 times) with equal force. Volume of each sample was recorded: (1.4 ml for Form K; 1.6 ml for H2-1).

[3] = Solubility measurement (time to clear solution in distilled water); settings: compared to other solid state forms of Saxagliptin hydrochloride
Method: Equal mass of samples was suspended in equal volume of distilled water. Suspensions were slightly mixed, time was recorded at the moment of clear solution appearance.

For N#C[C@@H]1C[C@@H]2C[C@@H]2N1C(=O)[C@@H](N)C12CC3CC(CC(O)(C3)C1)C2 [form D, Saxagliptin hydrochloride], the “filterability and powder flowability” value [1] was “good filterability and powder flowability properties”.
In the case of N#C[C@@H]1C[C@@H]2C[C@@H]2N1C(=O)[C@@H](N)C12CC3CC(CC(O)(C3)C1)C2 [form H2-1, Saxagliptin hydrochloride dihydrate, reference compound], the tapped density ([2]; hydrochloride dihydrate) is reported as “about 0.28 g/ml” and the “volume of sample after tapping” value ([2]; hydrochloride dihydrate) is reported as 1.6 mL.
With N#C[C@@H]1C[C@@H]2C[C@@H]2N1C(=O)[C@@H](N)C12CC3CC(CC(O)(C3)C1)C2 [form K, Saxagliptin hydrochloride] the tapped density ([2]; hydrochloride) was “about 0.32 g/ml” and the “volume of sample after tapping” value ([2]; hydrochloride) was 1.4 mL.
With N#C[C@@H]1C[C@@H]2C[C@@H]2N1C(=O)[C@@H](N)C12CC3CC(CC(O)(C3)C1)C2 [form Z, Saxagliptin hydrochloride] the dissolution rate [3] was “high dissolution rate”.
